Reference: PubChem BioAssay (NCI)
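96-well plates; 48 h exposure; 5 concentrations. Endpoints by linear interpolation between flanking doses. Not reached: highest tested concentration assigned. TGI: total growth inhibition.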

Key:
Assay in all cases: NCI-60 cell line screen, 48 h
[1] = tested on: SK-MEL-5 melanoma
[2] = tested on: SN12C renal
[3] = tested on: HCT-15 colon
[4] = tested on: K-562 leukemia
[5] = tested on: SNB-78 CNS
[6] = tested on: UO-31 renal
[7] = tested on: ACHN renal
[8] = tested on: SNB-19 CNS
[9] = tested on: DMS 273 small cell lung
[10] = tested on: SF-295 CNS
[11] = tested on: IGROV1 ovarian
[12] = tested on: SF-268 CNS
[13] = tested on: NCI-H522 lung
[14] = tested on: HCT-116 colon
[15] = tested on: DLD-1 colon
[16] = tested on: A498 renal
[17] = tested on: HT29 colon
[18] = tested on: NCI-H226 lung
[19] = tested on: UACC-62 melanoma
[20] = tested on: RXF 393 renal
[21] = tested on: MOLT-4 leukemia
[22] = tested on: SK-OV-3 ovarian
[23] = tested on: SNB-75 CNS
[24] = tested on: OVCAR-8 ovarian
[25] = tested on: HOP-18 NSCLC
[26] = tested on: LXFL 529 NSCLC
[27] = tested on: SK-MEL-2 melanoma
[28] = tested on: NCI-H23 lung
[29] = tested on: KM12 colon
[30] = tested on: OVCAR-3 ovarian
[31] = tested on: A549 NSCLC
[32] = tested on: OVCAR-4 ovarian
[33] = tested on: MALME-3M melanoma
[34] = tested on: M19-MEL melanoma
[35] = tested on: SK-MEL-28 melanoma
[36] = tested on: U251 CNS
[37] = tested on: LOX IMVI melanoma
[38] = tested on: CCRF-CEM leukemia
[39] = tested on: 786-0 renal
[40] = tested on: HL-60(TB) leukemia
[41] = tested on: UACC-257 melanoma
[42] = tested on: M14 melanoma
[43] = tested on: DMS 114 small cell lung
[44] = tested on: SF-539 CNS
[45] = tested on: NCI-H460 lung
[46] = tested on: TK-10 renal
[47] = tested on: COLO 205 colon
[48] = tested on: SR leukemia
[49] = tested on: EKVX NSCLC
[50] = tested on: HCC-2998 colon
[51] = tested on: RPMI-8226 leukemia
[52] = tested on: KM20L2 colon
[53] = tested on: HOP-62 NSCLC
[54] = tested on: SW-620 colon
[55] = tested on: OVCAR-5 ovarian
[56] = tested on: XF 498 CNS
[57] = tested on: HOP-92 NSCLC
[58] = tested on: CAKI-1 renal

CC(Oc1ccc(OCC2CCCCC2)cc1)C(=O)NCCO (configuration not stated)
TGI [1]: > 100 µM
TGI [2]: > 100 µM
TGI [3]: > 100 µM
TGI [4]: > 100 µM
TGI [5]: > 100 µM
TGI [6]: > 100 µM
TGI [7]: > 100 µM
TGI [8]: > 100 µM
TGI [9]: > 100 µM
TGI [10]: > 100 µM
TGI [11]: > 100 µM
TGI [12]: > 100 µM
TGI [13]: > 100 µM
TGI [14]: > 100 µM
TGI [15]: > 100 µM
TGI [16]: > 100 µM
TGI [17]: > 100 µM
TGI [18]: > 100 µM
TGI [19]: > 100 µM
TGI [20]: > 100 µM
TGI [21]: > 100 µM
TGI [22]: > 100 µM
TGI [23]: > 100 µM
TGI [24]: > 100 µM
TGI [25]: > 100 µM
TGI [26]: > 100 µM
TGI [27]: > 100 µM
TGI [28]: > 100 µM
TGI [29]: > 100 µM
TGI [30]: > 100 µM
TGI [31]: > 100 µM
TGI [32]: > 100 µM
TGI [33]: > 100 µM
TGI [34]: > 100 µM
TGI [35]: > 100 µM
TGI [36]: > 100 µM
TGI [37]: > 100 µM
TGI [38]: > 100 µM
TGI [39]: > 100 µM
TGI [40]: > 100 µM
TGI [41]: > 100 µM
TGI [42]: > 100 µM
TGI [43]: > 100 µM
TGI [44]: > 100 µM
TGI [45]: > 100 µM
TGI [46]: > 100 µM

COC(=O)N/N=C(\C(=O)Nc1cccc([N+](=O)[O-])c1)c1nc2ccc([N+](=O)[O-])cc2[nH]c1=O
TGI [1]: > 100 µM
TGI [2]: > 100 µM
TGI [47]: > 100 µM
TGI [48]: > 100 µM
TGI [4]: > 100 µM
TGI [49]: > 100 µM
TGI [6]: > 100 µM
TGI [7]: > 100 µM
TGI [50]: > 100 µM
TGI [8]: > 100 µM
TGI [51]: > 100 µM
TGI [10]: > 100 µM
TGI [11]: > 100 µM
TGI [12]: 13.3 µM
TGI [13]: 96.6 µM
TGI [52]: 67.3 µM
TGI [14]: > 100 µM
TGI [15]: > 100 µM
TGI [53]: 66.5 µM
TGI [54]: > 100 µM
TGI [17]: > 100 µM
TGI [18]: > 100 µM
TGI [19]: 58.5 µM
TGI [20]: > 100 µM
TGI [21]: > 100 µM
TGI [22]: > 100 µM
TGI [23]: > 100 µM
TGI [24]: > 100 µM
TGI [25]: > 100 µM
TGI [26]: > 100 µM
TGI [28]: > 100 µM
TGI [29]: > 100 µM
TGI [30]: > 100 µM
TGI [55]: > 100 µM
TGI [31]: > 100 µM
TGI [32]: > 100 µM
TGI [33]: > 100 µM
TGI [34]: > 100 µM
TGI [35]: > 100 µM
TGI [37]: > 100 µM
TGI [38]: > 100 µM
TGI [39]: > 100 µM
TGI [40]: > 100 µM
TGI [41]: > 100 µM
TGI [42]: > 100 µM
TGI [43]: 40.1 µM
TGI [44]: > 100 µM
TGI [45]: > 100 µM
TGI [56]: > 100 µM
TGI [46]: > 100 µM
TGI [57]: > 100 µM

O=C(/C=C/c1ccccc1Cl)c1cccc2ccccc12
TGI [1]: 34 µM
TGI [2]: > 100 µM
TGI [3]: 17.2 µM
TGI [47]: 33.3 µM
TGI [48]: 9.16 µM
TGI [4]: > 100 µM
TGI [49]: 25.4 µM
TGI [5]: 44.8 µM
TGI [6]: 21.3 µM
TGI [58]: 25.4 µM
TGI [7]: 30.4 µM
TGI [50]: 27.9 µM
TGI [8]: 16.8 µM
TGI [51]: 91 µM
TGI [9]: 31.6 µM
TGI [10]: 25.4 µM
TGI [11]: 29.6 µM
TGI [12]: 28.4 µM
TGI [13]: 18.6 µM
TGI [52]: 19.6 µM
TGI [14]: 12.8 µM
TGI [15]: 25.1 µM
TGI [53]: 28.9 µM
TGI [16]: 27.5 µM
TGI [54]: 4.06 µM
TGI [17]: 23.6 µM
TGI [18]: > 100 µM
TGI [19]: 28.6 µM
TGI [20]: 28.6 µM
TGI [21]: 5.59 µM
TGI [22]: 34.8 µM
TGI [23]: 18.3 µM
TGI [24]: 4.19 µM
TGI [25]: 29.7 µM
TGI [26]: 11.9 µM
TGI [27]: 35.5 µM
TGI [28]: 28.1 µM
TGI [29]: 16.8 µM
TGI [30]: 15 µM
TGI [55]: 26.7 µM
TGI [31]: 34 µM
TGI [32]: 16.6 µM
TGI [33]: 30.1 µM
TGI [34]: 23.5 µM
TGI [35]: 28.1 µM
TGI [36]: 8.45 µM
TGI [37]: 24.3 µM
TGI [38]: 45.2 µM
TGI [39]: 17.9 µM
TGI [40]: 37.7 µM
TGI [41]: 32 µM
TGI [42]: 30.5 µM
TGI [43]: 15.2 µM
TGI [44]: 23.3 µM
TGI [45]: 19.7 µM
TGI [46]: 29.2 µM
TGI [57]: 34.9 µM

Nc1c(C(=O)N/N=C/c2ccc(Cl)cc2)sc(=S)n1-c1ccccc1
TGI [1]: > 100 µM
TGI [47]: > 100 µM
TGI [4]: > 100 µM
TGI [6]: > 100 µM
TGI [7]: > 100 µM
TGI [50]: > 100 µM
TGI [8]: > 100 µM
TGI [10]: > 100 µM
TGI [11]: > 100 µM
TGI [12]: > 100 µM
TGI [13]: 91.9 µM
TGI [14]: > 100 µM
TGI [15]: > 100 µM
TGI [53]: > 100 µM
TGI [16]: > 100 µM
TGI [54]: > 100 µM
TGI [17]: > 100 µM
TGI [18]: > 100 µM
TGI [19]: > 100 µM
TGI [22]: > 100 µM
TGI [23]: > 100 µM
TGI [24]: > 100 µM
TGI [25]: > 100 µM
TGI [26]: > 100 µM
TGI [28]: > 100 µM
TGI [29]: > 100 µM
TGI [30]: > 100 µM
TGI [55]: > 100 µM
TGI [31]: > 100 µM
TGI [34]: > 100 µM
TGI [35]: > 100 µM
TGI [38]: > 100 µM
TGI [40]: > 100 µM
TGI [41]: > 100 µM
TGI [44]: > 100 µM
TGI [45]: > 100 µM
TGI [46]: > 100 µM
TGI [57]: > 100 µM
